Measurements taken from PubChem BioAssay AID2060361 (Molecular Pharmacology Branch, DTP, NCI, 2025).
Values joined by “and” are separate entries in the source; they are usually repeats but may differ in a detail not shown here. Identical values can stand only once.

System: 463943-066-T-J2-PDC tumor spheroids with HUVEC/MSC, viability
Assay: Anticancer human tumor 463943-066-T-J2-PDC patient-derived colon adenocarcinoma cell line growth inhibition [TAK]
Settings: for viability, T/C: stronger effect = lower value; active = viability on the fitted dose curve at most 10% of control; inactive = the rest
Excerpt: Combinatorial screen of targeted agents with TAK-243 and ipatasertib in multi-cell type tumor spheroids
A high-throughput screen of multi-cell type tumor spheroids was designed to identify active combinations of targeted small molecules and TAK-243 or ipatasertib. Complex spheroids include a stromal component modeled by human endothelial cells (HUVEC) and fibroblasts modeled by human mesenchymal stem cells (MSCs). The concentration ranges selected for each drug and investigational agent were based upon clinically achievable concentrations if the clinical Cmax of the agent was known.
Compounds. The drugs and investigational agents: TAK-243 (785004), ipatasertib (767898), everolimus (733504), selumetinib (741078), bortezomib (756655), trametinib (758246), ixazomib (758254), vemurafenib (761431), dabrafenib (764134), sapanisertib (764658), alpelisib (765974), and copanlisib (816437), were obtained from the National Cancer Institute (NCI) Developmental Therapeutics Program Chemical Repository. The FDA-approved anticancer drug set is available from the NCI Developmental Therapeutics Program. […] The stock solutions were prepared in dimethyl sulfoxide (DMSO, Sigma-Aldrich, St. Louis, MO, cat. D2650) at 800-fold the tested concentration and stored at -70 degrees C prior to their use. All drugs and investigational agents were tested over a range starting from a high concentration at or near the clinical Cmax and decreasing in half-log increments. If the clinical Cmax for an agent had not been determined, the highest concentration tested was 10 microM.
NCI60 Cell Culture. NCI60 cell lines were obtained from the NCI Developmental Therapeutics Program Tumor Repository. For each lot of cells, the Repository performed Applied Biosystems AmpFLSTR Identifiler testing with PCR amplification to confirm consistency with the published Identifier STR profile for each cell line. Cells were kept in continuous culture for no more than 20 passages. The optimal seeding densities for each of the cell lines at each time point assessed were determined prior to performing the concentration response studies. Briefly, the NCI60 human tumor lines were grown as monolayers in RPMI 1640 medium supplemented with 10% FBS and 2 mmol/L L-glutamine.
An additional 2 lines were from the NCI60 cell line panel including melanomas, MALME-3M and SK-MEL-2. Pooled donor human umbilical vein endothelial cells (HUVEC, Lonza, cat. CC-2519) and human mesenchymal stem cells (hMSC, Lonza, cat. PT-2501) were purchased from Lonza (Walkersville, MD).
PDMR cell lines were grown in complete medium (DC medium): Dulbecco's modified Eagle's medium (DMEM)/F12 supplemented with 5% fetal bovine serum (FBS), 2 mM L-glutamine, 100 U/mL penicillin and 100 µg/ml streptomycin, 0.4 µg/ml hydrocortisone, 10 ng/ml epidermal growth factor (EGF) recombinant human protein, 24 µg/mL adenine, and 0.1 mg/mL primocin. During culture from frozen stock vials, PDMR cells were cultured in the same medium containing 10 µM Y-27632 (see Table 3). The PDCs were cultured in complete DMEM/F12 media without 10 microM Y-27632 dihydrochloride for at least two passages prior to the screen. The pooled donor HUVEC and hMSC were cultured in endothelial cell growth medium 2 (PromoCell, Heidelberg, Germany, cat. C-22011) and mesenchymal stem cell growth medium 2 (PromoCell, cat. C-28009), respectively. For all experiments, HUVEC and hMSC were used at passages </=5.
For the pre-screen, cell seeding densities were determined from a titration spanning the range from 5,000 to 313 cells per well. The mct-spheroids including 60% malignant cells, 25% HUVEC and 15% MSC dispensed as a mixture into U-bottom Ultra-Low Attachment 384-well plates (Corning, NY)
High-throughput Drug Combination Screening.
Prior to their inoculation into 384-well plates, malignant cells, HUVEC, and hMSC were removed from T flasks using TrypLE express (Thermo Fisher Scientific, cat. 12605036) and harvested by centrifugation for 5 min at 233 x g. […]

[1] = curve of first compound, second compound 0.3 µM
[2] = curve of first compound, second compound 0.949 µM
[3] = curve of first compound, second compound 3 µM
[4] = curve of first compound, second compound 9.49 µM
[5] = curve of first compound, second compound 30 µM
[6] = second compound 0.3 µM, first compound 0.000316 µM
[7] = second compound 0.3 µM, first compound 0.001 µM
[8] = second compound 0.3 µM, first compound 0.00316 µM
[9] = second compound 0.3 µM, first compound 0.01 µM
[10] = second compound 0.3 µM, first compound 0.0316 µM
[11] = second compound 0.3 µM, first compound 0.1 µM
[12] = second compound 0.949 µM, first compound 0.000316 µM
[13] = second compound 0.949 µM, first compound 0.001 µM
[14] = second compound 0.949 µM, first compound 0.00316 µM
[15] = second compound 0.949 µM, first compound 0.01 µM
[16] = second compound 0.949 µM, first compound 0.0316 µM
[17] = second compound 0.949 µM, first compound 0.1 µM
[18] = second compound 3 µM, first compound 0.000316 µM
[19] = second compound 3 µM, first compound 0.001 µM
[20] = second compound 3 µM, first compound 0.00316 µM
[21] = second compound 3 µM, first compound 0.01 µM
[22] = second compound 3 µM, first compound 0.0316 µM
[23] = second compound 3 µM, first compound 0.1 µM
[24] = second compound 9.49 µM, first compound 0.000316 µM
[25] = second compound 9.49 µM, first compound 0.001 µM
[26] = second compound 9.49 µM, first compound 0.00316 µM
[27] = second compound 9.49 µM, first compound 0.01 µM
[28] = second compound 9.49 µM, first compound 0.0316 µM
[29] = second compound 9.49 µM, first compound 0.1 µM
[30] = second compound 30 µM, first compound 0.000316 µM
[31] = second compound 30 µM, first compound 0.001 µM
[32] = second compound 30 µM, first compound 0.00316 µM
[33] = second compound 30 µM, first compound 0.01 µM
[34] = second compound 30 µM, first compound 0.0316 µM
[35] = second compound 30 µM, first compound 0.1 µM
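Note: spheroids exposed to drugs for seven days.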

COC1CC2CCC(C)C(O)(O2)C(=O)C(=O)N2CCCCC2C(=O)OC(C(C)CC2CCC(OCCO)C(OC)C2)CC(=O)C(C)C=C(C)C(O)C(OC)C(=O)C(C)CC(C)C=CC=CC=C1C (stereo unspecified) + CC(C)NCC(C(=O)N1CCN(c2ncnc3c2C(C)CC3O)CC1)c1ccc(Cl)cc1
> 100 nM: IC50 [1] | IC50 [2] | IC50 [3] | IC50 [4] | IC50 [5]
inactive: viability, T/C [6] 91.7% | viability, T/C [7] 86.2% | viability, T/C [8] 90.4% | viability, T/C [9] 74.8% | viability, T/C [10] 86.5% | viability, T/C [11] 77.3% | viability, T/C [12] 85.5% | viability, T/C [13] 90.9% | viability, T/C [14] 83.2% | viability, T/C [15] 76.4% | viability, T/C [16] 78.8% | viability, T/C [17] 80.7% | viability, T/C [18] 86% | viability, T/C [19] 91.3% | viability, T/C [20] 81.4% | viability, T/C [21] 80.3% | viability, T/C [22] 78.2% | viability, T/C [23] 78.3% | viability, T/C [24] 84.8% | viability, T/C [25] 76.7% | viability, T/C [26] 81.5% | viability, T/C [27] 76.6% | viability, T/C [28] 80% | viability, T/C [29] 78.6% | viability, T/C [30] 85.8% | viability, T/C [31] 79.9% | viability, T/C [32] 82.8% | viability, T/C [33] 78.8% | viability, T/C [34] 73.1% | viability, T/C [35] 80.8%

COc1c(OCCCN2CCOCC2)ccc2c3n(c(=NC(=O)c4cnc(N)nc4)nc12)CCN3
inactive: viability, T/C (compound 0.00316 µM) 93.7% and 101% | viability, T/C (compound 0.01 µM) 88.3% and 90.3% | viability, T/C (compound 0.0316 µM) 84.4% and 86.9% | viability, T/C (compound 0.1 µM) 80.3% and 85% | viability, T/C (compound 0.316 µM) 77.4% and 77.2% | viability, T/C (compound 1 µM) 68.1% and 72.1%
> 1000 nM: IC50 (curve of compound)

CC(C)(C)c1nc(-c2cccc(NS(=O)(=O)c3c(F)cccc3F)c2F)c(-c2ccnc(N)n2)s1 + CC(C)NCC(C(=O)N1CCN(c2ncnc3c2C(C)CC3O)CC1)c1ccc(Cl)cc1
inactive: viability, T/C [10] 110% | viability, T/C [11] 111% | viability, T/C (second compound 0.3 µM, first compound 0.316 µM) 107% | viability, T/C (second compound 0.3 µM, first compound 1 µM) 112% | viability, T/C (second compound 0.3 µM, first compound 3.16 µM) 100% | viability, T/C (second compound 0.3 µM, first compound 10 µM) 92.5% | viability, T/C [16] 115% | viability, T/C [17] 111% | viability, T/C (second compound 0.949 µM, first compound 0.316 µM) 105% | viability, T/C (second compound 0.949 µM, first compound 1 µM) 111% | viability, T/C (second compound 0.949 µM, first compound 3.16 µM) 103% | viability, T/C (second compound 0.949 µM, first compound 10 µM) 88.3% | viability, T/C [22] 99% | viability, T/C [23] 109% | viability, T/C (second compound 3 µM, first compound 0.316 µM) 92.2% | viability, T/C (second compound 3 µM, first compound 1 µM) 102% | viability, T/C (second compound 3 µM, first compound 3.16 µM) 110% | viability, T/C (second compound 3 µM, first compound 10 µM) 101% | viability, T/C [28] 100% | viability, T/C [29] 111% | viability, T/C (second compound 9.49 µM, first compound 0.316 µM) 99.2% | viability, T/C (second compound 9.49 µM, first compound 1 µM) 109% | viability, T/C (second compound 9.49 µM, first compound 3.16 µM) 107% | viability, T/C (second compound 9.49 µM, first compound 10 µM) 104% | viability, T/C [34] 91% | viability, T/C [35] 98.6% | viability, T/C (second compound 30 µM, first compound 0.316 µM) 100% | viability, T/C (second compound 30 µM, first compound 1 µM) 97.2% | viability, T/C (second compound 30 µM, first compound 3.16 µM) 104% | viability, T/C (second compound 30 µM, first compound 10 µM) 91.1%
> 10000 nM: IC50 [1] | IC50 [2] | IC50 [3] | IC50 [4] | IC50 [5]

CC(C)n1nc(-c2ccc3oc(N)nc3c2)c2c(N)ncnc21 + CC(C)NCC(C(=O)N1CCN(c2ncnc3c2C(C)CC3O)CC1)c1ccc(Cl)cc1
> 100 nM: IC50 [1] | IC50 [2] | IC50 [3] | IC50 [4] | IC50 [5]
inactive: viability, T/C [6] 112% | viability, T/C [7] 102% | viability, T/C [8] 105% | viability, T/C [9] 95.2% | viability, T/C [10] 79.6% | viability, T/C [11] 74.1% | viability, T/C [12] 100% | viability, T/C [13] 97.2% | viability, T/C [14] 81.8% | viability, T/C [15] 78.6% | viability, T/C [16] 82.7% | viability, T/C [17] 78.5% | viability, T/C [18] 95.2% | viability, T/C [19] 106% | viability, T/C [20] 93.4% | viability, T/C [21] 89.8% | viability, T/C [22] 85.3% | viability, T/C [23] 78.2% | viability, T/C [24] 103% | viability, T/C [25] 91.6% | viability, T/C [26] 91.4% | viability, T/C [27] 88.3% | viability, T/C [28] 82.6% | viability, T/C [29] 74.1% | viability, T/C [30] 86.1% | viability, T/C [31] 106% | viability, T/C [32] 83.2% | viability, T/C [33] 89% | viability, T/C [34] 82% | viability, T/C [35] 74.6%

Cc1nc(NC(=O)N2CCCC2C(N)=O)sc1-c1ccnc(C(C)(C)C(F)(F)F)c1 (stereo unspecified)
> 10000 nM: IC50 (curve of compound)
inactive: viability, T/C (compound 0.0316 µM) 96.2% and 102% | viability, T/C (compound 0.1 µM) 103% and 91.1% | viability, T/C (compound 0.316 µM) 87.7% and 90.1% | viability, T/C (compound 1 µM) 78.6% and 84.6% | viability, T/C (compound 3.16 µM) 81.1% and 78.6% | viability, T/C (compound 10 µM) 78.6% and 73.7%

CCCS(=O)(=O)Nc1ccc(F)c(C(=O)c2c[nH]c3ncc(-c4ccc(Cl)cc4)cc23)c1F
inactive: viability, T/C (compound 0.316 µM) 108% and 97.6% | viability, T/C (compound 1 µM) 107% and 112% | viability, T/C (compound 3.16 µM) 109% and 126% | viability, T/C (compound 10 µM) 95.6% and 103% | viability, T/C (compound 31.6 µM) 122% and 118% | viability, T/C (compound 100 µM) 122% and 124%
> 100000 nM: IC50 (curve of compound)
